ChEMBL document CHEMBL5360620, “Diphenyl Ether Derivative Rhexocerins and Rhexocercosporins from the Endophytic Fungus Rhexocercosporidium sp. Dzf14 Active against Gram-Positive Bacteria with Multidrug-Resistance” (J Nat Prod, 2023)
Values after ≈ are worked out from the molar mass of the structure shown.

Columns and labels:
Pseudomonas aeruginosa = assay: Antibacterial activity against wild-type Pseudomonas aeruginosa PAO1 incubated for 18 hrs by broth microdilution method; assay type: functional
Escherichia coli = assay: Antibacterial activity against multi-drug resistant Escherichia coli B2 clinical isolate incubated for 18 hrs by broth microdilution method; assay type: functional
HGC-27 = assay: Cytotoxicity against human HGC-27 cells by MTT assay; assay type: toxicity, cell-based
HCT-8 = assay: Cytotoxicity against human HCT-8 cells by MTT assay; assay type: toxicity, cell-based
PANC-1 = assay: Cytotoxicity against human PANC-1 cells by MTT assay; assay type: toxicity, cell-based
PC-9 = assay: Cytotoxicity against human PC-9 cells by MTT assay; assay type: toxicity, cell-based
HepG2 = assay: Cytotoxicity against human HepG2 cells by MTT assay; assay type: toxicity, cell-based
Staphylococcus aureus = assay: Antibacterial activity against methicillin-resistant Staphylococcus aureus T144 incubated for 18 hrs by broth microdilution method; assay type: functional
Enterococcus faecalis = assay: Antibacterial activity against vancomycin-resistant Enterococcus faecalis 10 incubated for 18 hrs by broth microdilution method; assay type: functional

Compound | MIC (Pseudomonas aeruginosa) [mg/L] | MIC (Escherichia coli) [mg/L] | Activity (HGC-27) | Activity (HCT-8) | Activity (PANC-1) | Activity (PC-9) | Activity (HepG2) | MIC (Staphylococcus aureus) [mg/L] | MIC (Enterococcus faecalis) [mg/L]
COLISTIN | 0.13 | 2 | – | – | – | – | – | – | –
COC(=O)c1c(OC)cc2c(c1C)[C@H](OC)[C@H]1c3c(cc(C)c(O)c3O2)OC1(C)C | – | – | Non-Toxic | Non-Toxic | Non-Toxic | Non-Toxic | Non-Toxic | – | –
COC(=O)c1c(OC)cc2c(c1C)[C@@H](C=C(C)C)c1c(O)cc(C)cc1O2 | > 32 | > 32 | Non-Toxic | Non-Toxic | Non-Toxic | Non-Toxic | Non-Toxic | 4 (≈ 10.9 µM) | 4 (≈ 10.9 µM)
COC(=O)c1c(O)cc2c(c1C)C=C1c3c(cc(C)c(O)c3O2)OC1(C)C | > 32 | > 32 | Non-Toxic | Non-Toxic | Non-Toxic | Non-Toxic | Non-Toxic | 16 (≈ 43.4 µM) | 16 (≈ 43.4 µM)
COC(=O)c1c(O)cc2c(c1C)[C@@H](C=C(C)C)c1c(O)cc(C)cc1O2 | > 32 | > 32 | Non-Toxic | Non-Toxic | Non-Toxic | Non-Toxic | Non-Toxic | 16 (≈ 45.1 µM) | 8 (≈ 22.6 µM)
COC(=O)c1c(O)cc2c(c1C)[C@@H](C=C(C)C)C1=C(O2)C(=O)C(C)=CC1=O | > 32 | > 32 | Non-Toxic | Non-Toxic | Non-Toxic | Non-Toxic | Non-Toxic | > 32 | 8 (≈ 21.7 µM)
COC(=O)c1c(OC)cc2c(c1C)[C@@H](C=C(C)C)C1=C(O2)C(=O)C(C)=CC1=O | > 32 | > 32 | Non-Toxic | Non-Toxic | Non-Toxic | Non-Toxic | Non-Toxic | 32 (≈ 83.7 µM) | 8 (≈ 20.9 µM)
COC(=O)c1c(OC)cc2c(c1C)[C@H](O)[C@H]1c3c(cc(C)c(O)c3O2)OC1(C)C | – | – | Non-Toxic | Non-Toxic | Non-Toxic | Non-Toxic | Non-Toxic | – | –
COC(=O)c1c(OC)cc2c(c1C)C=C1c3c(cc(C)c(O)c3O2)OC1(C)C | – | – | Non-Toxic | Non-Toxic | Non-Toxic | Non-Toxic | Non-Toxic | – | –
CC(C)=C[C@H]1c2c(O)cc(C)cc2Oc2cc(O)c(C(=O)O)c(C)c21 | > 32 | > 32 | Non-Toxic | Non-Toxic | Non-Toxic | Non-Toxic | Non-Toxic | 16 (≈ 47 µM) | 16 (≈ 47 µM)
CN[C@H](CC(C)C)C(=O)N[C@H]1C(=O)N[C@@H](CC(N)=O)C(=O)N[C@H]2C(=O)N[C@H]3C(=O)N[C@H](C(=O)N[C@H](C(=O)O)c4cc(O)cc(O)c4-c4cc3ccc4O)[C@H](O)c3ccc(c(Cl)c3)Oc3cc2cc(c3O[C@@H]2O[C@H](CO)[C@@H](O)[C@H](O)[C@H]2O[C@H]2C[C@](C)(N)[C@H](O)[C@H](C)O2)Oc2ccc(cc2Cl)[C@H]1O [VANCOMYCIN] | – | – | – | – | – | – | – | – | > 128
COC(=O)c1c(OC)cc2c(c1C)[C@@H](C=C(C)C)c1c(O)cc(C)c(OC)c1O2 | – | – | Non-Toxic | Non-Toxic | Non-Toxic | Non-Toxic | Non-Toxic | – | –
